Drawing on PubChem BioAssay AID252 (DTP/NCI, 2004), this text covers T/C for 4 molecules.

Values joined by “and” are separate entries in the source; they are usually repeats but may differ in a detail not shown here. Equal values may be shown once. Inconclusive results and toxic doses are left out.

The test system of the assay is BDF1 mice, intracerebral L1210 leukemia, survival T/C. Briefly: NCI In Vivo Anticancer Drug Screen. Data for tumor model L1210 Leukemia (intracerebral) in B6D2F1 (BDF1) mice. The following applies: endpoint: mean survival time, higher = longer survival. How it is done:
The antitumor activity of compounds was measured in mice bearing transplantable tumors. Survival or tumor size were measured and the results are expressed as the measurement made in the treated group (T) divided by the measurement made in the vehicle treated control group (C). The tumor model used in this assay is L1210 Leukemia (intracerebral) in B6D2F1 (BDF1) mice

Setting [1] is: dose: 75.0 mg/kg/injection, schedule: Q01DX001 (ip), vehicle: carboxymethylcellulose (CMC).

As to `O=NN(CCCl)C(=O)NC1CCCCC1`, the T/C was 101 % of control (dose: 1.0 mg/kg/injection, schedule: Q01DX001 (ip), vehicle: saline); 91 % of control (dose: 1.0 mg/kg/injection, schedule: Q01DX001 (oral), vehicle: saline); 103 % of control and 116 % of control (dose: 1.0 mg/kg/injection, schedule: Q01DX Z (ip), vehicle: carboxymethylcellulose (CMC)); 106 % of control (dose: 2.0 mg/kg/injection, schedule: Q01DX009 (ip), vehicle: carboxymethylcellulose (CMC)); 104 % of control and 108 % of control (dose: 2.0 mg/kg/injection, schedule: Q01DX Z (ip), vehicle: carboxymethylcellulose (CMC)); 118 % of control (dose: 4.0 mg/kg/injection, schedule: Q01DX Z (ip), vehicle: carboxymethylcellulose (CMC)). The T/C reads like this: (dose: 5.0 mg/kg/injection, schedule: Q01DX001 (ip), vehicle: carboxymethylcellulose (CMC)) 115 % of control; (dose: 5.1 mg/kg/injection, schedule: Q01DX001 (ip), vehicle: carboxymethylcellulose (CMC)) 111 % of control and 120 % of control; (dose: 8.0 mg/kg/injection, schedule: Q01DX009 (ip), vehicle: carboxymethylcellulose (CMC)) 212 % of control; (dose: 8.0 mg/kg/injection, schedule: Q01DX Z (ip), vehicle: carboxymethylcellulose (CMC)) 202 % of control; (dose: 10.0 mg/kg/injection, schedule: Q01DX001 (ip), vehicle: saline) 113 % of control; (dose: 10.0 mg/kg/injection, schedule: Q01DX001 (oral), vehicle: saline) 115 % of control. Moreover, the T/C is 213 % of control (dose: 12.0 mg/kg/injection, schedule: Q01DX Z (ip), vehicle: carboxymethylcellulose (CMC)); 166 % of control and 176 % of control (dose: 12.5 mg/kg/injection, schedule: Q01DX001 (ip), vehicle: carboxymethylcellulose (CMC)); 114 % of control and 122 % of control (dose: 14.0 mg/kg/injection, schedule: Q01DX001 (ip), vehicle: carboxymethylcellulose (CMC)); 302 % of control (dose: 16.0 mg/kg/injection, schedule: Q01DX009 (ip), vehicle: carboxymethylcellulose (CMC)); 152 % of control and 162 % of control (dose: 16.0 mg/kg/injection, schedule: Q01DX Z (ip), vehicle: carboxymethylcellulose (CMC)); 292 % of control (dose: 20.0 mg/kg/injection, schedule: Q01DX001 (ip), vehicle: carboxymethylcellulose (CMC)). In addition, the T/C is 266 % of control and 288 % of control and 339 % of control (dose: 24.25 mg/kg/injection, schedule: Q01DX001 (oral), vehicle: carboxymethylcellulose (CMC)); 231 % of control (dose: 25.0 mg/kg/injection, schedule: Q01DX001 (ip), vehicle: saline); 243 % of control (dose: 25.0 mg/kg/injection, schedule: Q01DX001 (oral), vehicle: saline); 240 % of control and 321 % of control (dose: 30.0 mg/kg/injection, schedule: Q01DX001 (ip), vehicle: carboxymethylcellulose (CMC)); 322 % of control (dose: 30.0 mg/kg/injection, schedule: Q01DX001 (ip), vehicle: saline); 152 % of control (dose: 31.0 mg/kg/injection, schedule: Q01DX Z (ip), vehicle: carboxymethylcellulose (CMC)). Also, the T/C (dose: 32.0 mg/kg/injection, schedule: Q01DX001 (ip), vehicle: carboxymethylcellulose (CMC)) is 165 % of control and 246 % of control; the T/C (dose: 33.0 mg/kg/injection, schedule: Q01DX001 (ip), vehicle: carboxymethylcellulose (CMC)) is 459 % of control; the T/C (dose: 36.0 mg/kg/injection, schedule: Q01DX001 (ip), vehicle: carboxymethylcellulose (CMC)) is 277 % of control; the T/C (dose: 37.5 mg/kg/injection, schedule: Q01DX001 (ip), vehicle: carboxymethylcellulose (CMC)) was 269 % of control; the T/C (dose: 40.0 mg/kg/injection, schedule: Q01DX001 (ip), vehicle: saline) is 240 % of control; the T/C (dose: 43.0 mg/kg/injection, schedule: Q01DX001 (ip), vehicle: carboxymethylcellulose (CMC)) was 481 % of control and 731 % of control. Further, the T/C is 189 % of control (dose: 45.0 mg/kg/injection, schedule: Q01DX001 (ip), vehicle: carboxymethylcellulose (CMC)); 274 % of control and 306 % of control (dose: 48.0 mg/kg/injection, schedule: Q01DX001 (ip), vehicle: carboxymethylcellulose (CMC)); 278 % of control and 337 % of control and 420 % of control (dose: 48.5 mg/kg/injection, schedule: Q01DX001 (oral), vehicle: carboxymethylcellulose (CMC)); 218 % of control and 277 % of control (dose: 50.0 mg/kg/injection, schedule: Q01DX001 (ip), vehicle: saline); 255 % of control (dose: 50.0 mg/kg/injection, schedule: Q01DX001 (oral), vehicle: saline); 473 % of control (dose: 55.0 mg/kg/injection, schedule: Q01DX001 (ip), vehicle: carboxymethylcellulose (CMC)). Besides, the T/C is, setting by setting: (dose: 60.0 mg/kg/injection, schedule: Q01DX001 (ip), vehicle: carboxymethylcellulose (CMC)) 359 % of control and 414 % of control and 463 % of control; (dose: 60.0 mg/kg/injection, schedule: Q01DX001 (ip), vehicle: saline) 227 % of control; (dose: 62.0 mg/kg/injection, schedule: Q01DX Z (ip), vehicle: carboxymethylcellulose (CMC)) 91 % of control and 94 % of control; (dose: 70.0 mg/kg/injection, schedule: Q01DX001 (ip), vehicle: carboxymethylcellulose (CMC)) 267 % of control; (dose: 70.0 mg/kg/injection, schedule: Q01DX001 (ip), vehicle: saline) 109 % of control; (dose: 72.0 mg/kg/injection, schedule: Q01DX001 (ip), vehicle: carboxymethylcellulose (CMC)) 208 % of control and 284 % of control and 293 % of control. The T/C is 294 % of control under setting [1]; 276 % of control (dose: 75.0 mg/kg/injection, schedule: Q01DX001 (ip), vehicle: saline); 208 % of control (dose: 75.0 mg/kg/injection, schedule: Q01DX001 (oral), vehicle: saline); 184 % of control (dose: 80.0 mg/kg/injection, schedule: Q01DX001 (ip), vehicle: carboxymethylcellulose (CMC)); 184 % of control and 211 % of control (dose: 86.0 mg/kg/injection, schedule: Q01DX001 (ip), vehicle: carboxymethylcellulose (CMC)); 120 % of control and 122 % of control (dose: 97.0 mg/kg/injection, schedule: Q01DX001 (oral), vehicle: carboxymethylcellulose (CMC)). For the same molecule, the T/C by setting is: (dose: 100.0 mg/kg/injection, schedule: Q01DX001 (ip), vehicle: carboxymethylcellulose (CMC)) 103 % of control; (dose: 100.0 mg/kg/injection, schedule: Q01DX001 (ip), vehicle: saline) 89 % of control; (dose: 100.0 mg/kg/injection, schedule: Q01DX001 (oral), vehicle: saline) 102 % of control.
For `O=NN1CCCNC1=O`, the T/C under setting [1] was 119 % of control; the T/C (dose: 111.0 mg/kg/injection, schedule: Q01DX001 (ip), vehicle: carboxymethylcellulose (CMC)) was 117 % of control; the T/C (dose: 150.0 mg/kg/injection, schedule: Q01DX001 (ip), vehicle: carboxymethylcellulose (CMC)) is 153 % of control; the T/C (dose: 167.0 mg/kg/injection, schedule: Q01DX001 (ip), vehicle: carboxymethylcellulose (CMC)) was 186 % of control; the T/C (dose: 250.0 mg/kg/injection, schedule: Q01DX001 (ip), vehicle: carboxymethylcellulose (CMC)) was 91 % of control.
For the molecule `CN(N=O)C(=O)C(=O)N(C)N=O`, the T/C is 98 % of control (dose: 15.0 mg/kg/injection, schedule: Q01DX Z (ip), vehicle: saline); 97 % of control (dose: 30.0 mg/kg/injection, schedule: Q01DX Z (ip), vehicle: saline); 98 % of control (dose: 60.0 mg/kg/injection, schedule: Q01DX Z (ip), vehicle: saline); 98 % of control (dose: 120.0 mg/kg/injection, schedule: Q01DX Z (ip), vehicle: saline).
`Nc1nc(=S)c2ncn(C3OC(CO)C(O)C3O)c2[nH]1` (stereo unspecified): the T/C by setting is: (dose: 0.66 mg/kg/injection, schedule: Q01DX015 (ip), vehicle: carboxymethylcellulose (CMC)) 105 % of control; (dose: 1.0 mg/kg/injection, schedule: Q01DX015 (ip), vehicle: carboxymethylcellulose (CMC)) 115 % of control; (dose: 1.5 mg/kg/injection, schedule: Q01DX015 (ip), vehicle: carboxymethylcellulose (CMC)) 121 % of control; (dose: 95.0 mg/kg/injection, schedule: Q01DX001 (ip), vehicle: carboxymethylcellulose (CMC)) 157 % of control; (dose: 144.0 mg/kg/injection, schedule: Q01DX001 (ip), vehicle: carboxymethylcellulose (CMC)) 171 % of control; (dose: 215.0 mg/kg/injection, schedule: Q01DX001 (ip), vehicle: carboxymethylcellulose (CMC)) 152 % of control.
